Data set [1] can be described thus: Saturated solubility in physiological saline. In kind it is physicochemical. The following applies: 25° C., as dihydrochloride. The protocol:
To be more specific, pralmorelin has low saturated solubility in physiological saline (0.15 w/v % at 25° C. when it is dihydrochloride) and at higher concentrations, pralmorelin becomes insoluble with the lapse of time and a problem occurs in terms of storage stability, thus making it difficult to formulate pralmorelin pharmaceutically using physiological saline. Even at concentrations lower than its saturated solubility, pralmorelin has low in vivo absorption and needs frequent administration.

Data set [2] is described as follows: In vivo absorption after intranasal administration to rats (plasma concentration, two-antibody competition method). Particulars: Crj:CD (SD), rat; for Tmax: male rats; for AUC / Cmax / bioavailability: male. The protocol:
With an isotonic solution (in distilled water) of 5 w/v % D-mannitol or physiological saline used as a solvent, a solution of 0.1 w/v % pralmorelin dihydrochloride was prepared and administered to male rats (7-week old, Crj:CD (SD) strain, N=3) in an amount of 50 μg/kg.
With the rats fixed supine under an unanesthetized condition, the pralmorelin solution was administered into one nostril of each rat in an amount of 50 μg/kg with a micropipette. The rats were not anesthetized for two reasons: actual drug administration is effected without anesthesia; the effects anesthetization would have on drug absorption have not been elucidated.
The concentration of an unchanged substance in plasma was measured in accordance with the two-antibody competition method of Kitagawa et al. summarized below [J. Assoc. Off. Anal. Chem., Vol. 68, No. 4, pp. 661–664 (1985) and J. Immunological Methods, 72, pp. 109–118 (1984)].
Anti-rabbit IgG goat IgG (Jackson Immuno Research) as the second antibody was adsorbed on an ELISA 96-well microplate (GREINER). Then, anti-pralmorelin dihydrochloride rabbit serum was adsorbed on the same microplate; the serum was the first antibody and had been obtained by subcutaneous injection of rabbits with an immunogen having pralmorelin dihydrochloride bound to bovine serum albumin (Sigma) by means of water-soluble carbodiimide (Nakarai Tesk).
Pralmorelin dihydrochloride contained in a sample was allowed to compete for pralmorelin labeled β-galactosidase that had been crosslinked with crosslinker N-(m-maleimidebenzoyloxy)succinimide (Nakaral Tesk); then, the β-galactosidase bound to the first antibody was reacted with 4-methylumbelliferyl-β-D-galactopyranoside; thereafter, the enzymatic activity of the β-galactosidase bound to the first antibody was measured at an excitation wavelength of 370 nm and a fluorescence wavelength of 460 nm.
From the measured values for the enzymatic activity of the β-galactosidase, the maximum plasma drug concentration (Cmax) of pralmorelin dihydrochloride, the area under the plasma drug concentration vs time curve (AUC) and the bioavailability (the ratio of AUC obtained by intranasal administration to AUC obtained by intravenous administration) were obtained.
Two kinds of preparation for intranasal administration, one consisting of pralmorelin dihydrochloride and distilled water and the other further containing D-mannitol at varying concentrations, were evaluated for their effects on in vivo absorption of pralmorelin dihydrochloride. With four kinds of solvent, distilled water, 2.5 w/v % D-mannitol solution (osmolarity ratio, 0.5), 5 w/v % D-mannitol solution (osmolarity ratio, 1), 10 w/v % D-mannitol solution (osmolarity ratio, 2), solutions of 0.4 w/v % pralmorelin dihydrochloride were prepared and administered in an amount of 50 μg/kg to male rats as in Example 1.
With an aqueous solution of 0.005 w/v % benzalkonium chloride used as a base, pralmorelin preparations for intranasal administration were made at three concentrations, 0.1 w/v %, 0.3 w/v % and 1.0 w/v %, of pralmorelin dihydrochloride. Each preparation was dripped into the right nostril of 5-week old male Crj:CD (SD) rats (N=3). The dose of administration was 0.1 mg/kg, 0.3 mg/kg and 1.0 mg/kg for the respective preparations, which were all administered in a volume of 0.1 ml/kg.

[3] abbreviates: inhaled or intranasal, 50 ug/kg, intranasal 50 μg/kg, 0.1 w/v % solution in 5 w/v % D-mannitol.
The mark [4] stands for this setting: inhaled or intranasal, 50 ug/kg, intranasal 50 μg/kg, 0.1 w/v % solution in physiological saline.
The mark [5] stands for this setting: inhaled or intranasal, 50 ug/kg, intranasal 50 μg/kg, 0.4 w/v % solution in 2.5 w/v % D-mannitol (osmolarity ratio 0.5).
[6] abbreviates: inhaled or intranasal, 50 ug/kg, intranasal 50 μg/kg, 0.4 w/v % solution in 5 w/v % D-mannitol (osmolarity ratio 1).
The mark [7] stands for this setting: inhaled or intranasal, 50 ug/kg, intranasal 50 μg/kg, 0.4 w/v % solution in 10 w/v % D-mannitol (osmolarity ratio 2).
Setting [8] is: inhaled or intranasal, 50 ug/kg, intranasal 50 μg/kg, 0.4 w/v % solution in distilled water.
Setting [9] is: inhaled or intranasal, 0.1 mg/kg, intranasal 0.1 mg/kg, 0.1 w/v % in aqueous 0.005 w/v % benzalkonium chloride, 0.1 ml/kg.
The mark [10] stands for this setting: inhaled or intranasal, 0.3 mg/kg, intranasal 0.3 mg/kg, 0.3 w/v % in aqueous 0.005 w/v % benzalkonium chloride, 0.1 ml/kg.
Where [11] appears, read: inhaled or intranasal, 1 mg/kg, intranasal 1.0 mg/kg, 1.0 w/v % in aqueous 0.005 w/v % benzalkonium chloride, 0.1 ml/kg.

Where a SMILES comes first, the peptide text is derived from it. [ ]: non-standard residue; d: D form. d2Nal = N[C@H](Cc1ccc2ccccc2c1)C(=O)O

In general, Tmax refers to the time from dosing to the highest level. For orientation: AUC means concentration integrated over time. Read a low AUC as low exposure. The term Cmax denotes the highest concentration seen after dosing. The term bioavailability denotes dose-corrected exposure relative to a reference, in per cent.

Consider `C[C@H](NC(=O)[C@@H](Cc1ccc2ccccc2c1)NC(=O)[C@@H](C)N)C(=O)N[C@@H](Cc1c[nH]c2ccccc12)C(=O)N[C@H](Cc1ccccc1)C(=O)N[C@@H](CCCCN)C(N)=O.Cl.Cl` [pralmorelin dihydrochloride, D-alanyl-3-(naphthalen-2-yl)-D-alanyl-L-alanyl-L-tryptophyl-D-phenylalanyl-L-lysinamide dihydrochloride] (H-[dA][d2Nal]AW[dF]K-NH2), for which, in data set [1], the “saturated solubility in physiological saline” value amounted to 0.15 w/v %. Also, the Tmax in data set [2] (inhaled or intranasal, intranasal 0.1 mg/kg, 0.1 w/v % in aqueous 0.005 w/v % benzalkonium chloride, 0.1 ml/kg) came out at 10.2 min; in data set [2] (inhaled or intranasal, intranasal 0.3 mg/kg, 0.3 w/v % in aqueous 0.005 w/v % benzalkonium chloride, 0.1 ml/kg) it was 10.2 min; in data set [2] (inhaled or intranasal, intranasal 1.0 mg/kg, 1.0 w/v % in aqueous 0.005 w/v % benzalkonium chloride, 0.1 ml/kg), 10.2 min. Also, the exposure (AUC) in data set [2] (setting [3]) was 2.71 ng·h/mL; in data set [2] (setting [4]), 1.98 ng·h/mL; in data set [2] (setting [9]) it was 14.5 ng·h/mL; in data set [2] (setting [10]), 48.1 ng·h/mL; in data set [2] (setting [11]), 250 ng·h/mL. Also, the Cmax amounted to 2.37 ng/mL in data set [2] (setting [3]); 0.7 ng/mL in data set [2] (setting [4]); 55.8 ng/mL in data set [2] (setting [5]); 49.2 ng/mL in data set [2] (setting [6]); 21.7 ng/mL in data set [2] (setting [7]); 60.7 ng/mL in data set [2] (setting [8]). The figures for the peak concentration (Cmax) in data set [2] (setting [9]), in data set [2] (setting [10]) and in data set [2] (setting [11]) were 18 ng/mL, 72.8 ng/mL and 502 ng/mL, respectively. Besides, the bioavailability in data set [2] (setting [5]) stood at 22.1%; in data set [2] (setting [6]) it was 19%; in data set [2] (setting [7]), 9%; in data set [2] (setting [8]), 26.2%; in data set [2] (other: intranasal, 50 ug/kg, intranasal 50 μg/kg, 0.1 w/v % solution in 5 w/v % D-mannitol, AUC intranasal / AUC intravenous), 4.22%; in data set [2] (other: intranasal, 50 ug/kg, intranasal 50 μg/kg, 0.1 w/v % solution in physiological saline, AUC intranasal / AUC intravenous), 3.08%.

Source of the values: patent US7008927B2, “Pralmorelin-containing nasal drop preparations” (Kaken Pharmaceutical Co., Ltd., priority 2000, dated 2006).
